Target: T1, rat serum albumin (RSA) (Rattus norvegicus, UniProt P02770)
T1 construct: gene Alb
Test: Trp214 fluorescence quenching titration (steady-state, double-log Ka; IDF/Scatchard Kb […] ^−[…]), static mechanism confirmed by time-resolved fluorescence
Assay type: binding
Details: read-out: Ka (×10^4 M^-1) (converted)

T1 sequence (P02770 25-608): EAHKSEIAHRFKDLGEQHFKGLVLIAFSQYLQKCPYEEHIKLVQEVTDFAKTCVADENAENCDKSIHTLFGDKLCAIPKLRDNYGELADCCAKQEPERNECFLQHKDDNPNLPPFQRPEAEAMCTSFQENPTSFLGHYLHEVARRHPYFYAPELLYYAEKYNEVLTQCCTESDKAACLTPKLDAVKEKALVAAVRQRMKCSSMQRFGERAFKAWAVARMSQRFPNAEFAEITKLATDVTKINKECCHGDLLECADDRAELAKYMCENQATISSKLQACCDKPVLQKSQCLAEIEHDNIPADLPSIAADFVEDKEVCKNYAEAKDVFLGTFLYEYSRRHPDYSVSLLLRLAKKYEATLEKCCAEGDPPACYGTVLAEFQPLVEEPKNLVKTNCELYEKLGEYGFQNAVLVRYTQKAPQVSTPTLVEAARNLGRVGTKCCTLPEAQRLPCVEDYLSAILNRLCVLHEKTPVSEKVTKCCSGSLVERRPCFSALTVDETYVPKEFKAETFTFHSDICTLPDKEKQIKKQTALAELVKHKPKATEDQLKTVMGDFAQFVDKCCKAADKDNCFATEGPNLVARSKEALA

Structure (SMILES): O=C(/C=C/C=C/c1ccc2c(c1)OCO2)N1CCCCC1 [piperine]
- Kd: 25.6 µM
